This note sets out measurements from patent US8497296B2, “N,N′-hydrazino-bis-isatin derivatives with selective activity against multidrug-resistant cancer cells” (King Saud University, priority 2011, dated 2013).

In assay [1] the test system is KB-3-1 cells. The assay can be described thus: MTT cytotoxicity assay, parental KB-3-1 cell line. The conditions noted are these: Homo sapiens, parental KB-3-1 cells (HeLa derivative), 72 h incubation, at least three experiments, read-out: IC50 KB3-1. It counts as cell-based. The method, then: (§1) The cytotoxicity of the prepared compounds was evaluated at Laboratory of Cell Biology, National Cancer Institute, National Institutes of Health, Bethesda, Md. 20892, Group in Biomolecular, USA, using the following protocol:
KB-3-1 cells (a HeLa deriviative) and its MDR derivative (KB-V1) were grown as previously described. Cell survival was measured by the MTT (3-(4,5-dimethylthiazol-2-yl)-2,5-diphenyltetrazolium bromide) assay as previously described. Briefly, cells were seeded in 100 μL of growth medium at a density of 5000 cells/well in 96-well plates and allowed to establish for 24 h, at which time serially diluted drugs were added in an additional 100 μL of growth medium. Cells were then incubated for 72 h at 37° C. in humidified 5% CO2, at which time the growth medium was drawn and replaced with MTT in IMDM growth medium and incubated for 4 h. The MTT solution was then drawn from the wells, and 100 μL of acidified ethanol solution was added to each well and after 15 min absorption at 560 nm was measured. […] The effect of treatment on cell viability was determined using the luminescent Cell Titer Glo Assay (Promega).
A general note: Tetrazolium assays rely on reduction of a dye to a coloured formazan, in cell work by metabolically active cells.

For assay [2], the system named is KB-V1 cells. The assay can be described thus: MTT cytotoxicity assay, P-glycoprotein-expressing MDR cell line KB-V1. Conditions: for IC50: Homo sapiens, P-glycoprotein-expressing MDR KB-V1 cells, 72 h incubation, MTT, at least three experiments, read-out: IC50 KBV1; for RR (MDR1 selectivity): ratio of IC50 against KB-3-1 cells divided by IC50 against KB-V1 cells, >1 = MDR1-selective. It counts as cell-based. The method, then:
as §1
KB-3-1 cells (a HeLa deriviative) and its MDR derivative (KB-V1) were grown as previously described. Cell survival was measured by the MTT (3-(4,5-dimethylthiazol-2-yl)-2,5-diphenyltetrazolium bromide) assay as previously described. Briefly, cells were seeded in 100 μL of growth medium at a density of 5000 cells/well in 96-well plates and allowed to establish for 24 h, at which time serially diluted drugs were added in an additional 100 μL of growth medium. Cells were then incubated for 72 h at 37° C. in humidified 5% CO2, at which time the growth medium was drawn and replaced with MTT in IMDM growth medium and incubated for 4 h. The MTT solution was then drawn from the wells, and 100 μL of acidified ethanol solution was added to each well and after 15 min absorption at 560 nm was measured. […]

A word on the IC50: it is the concentration that gives 50% inhibition.

With `N/N=C1\C(=O)Nc2ccccc21` [Compound 2a, (Z)-3-Hydrazonoindolin-2-one], the half-maximal inhibitory concentration (IC50) in assay [1] is over 500 µM; in assay [2] it was 125 ± 39.4 µM.
On to `O=C1Nc2ccccc2/C1=N/N=C1\C(=O)Nc2ccccc21` [Compound 3, (3Z,3′Z)-3,3′-(Hydrazine-1,2-diylidene)diindolin-2-one], for which the IC50 in assay [1] stood at 17.1 ± 0.83 µM; in assay [2], 17.3 ± 1.59 µM. Further, the “RR (MDR1 selectivity)” value in assay [2] came out at 0.99.
On the same counts, the results for `O=C1Nc2ccccc2/C1=N/N=C1\C(=O)N(c2ccccc2)c2ccccc21` [Compound 4, (Z)-3-((Z)-(2-Oxoindolin-3-ylidene)hydrazono)-1-phenylindolin-2-one] are 8.7 ± 2.21 µM, 10.8 ± 1.1 µM and 0.81.
Take `O=C1Nc2ccccc2/C1=N/N=C1\C(=O)Nc2ccc(F)cc21` [Compound 5, (Z)-5-Fluoro-3-((Z)-(2-oxoindolin-3-ylidene)hydrazono)indolin-2-one]: the IC50 in assay [1] was 28.1 ± 2.48 µM. Besides, in assay [2], the half-maximal inhibitory concentration (IC50) is 25.3 ± 10.1 µM and the “RR (MDR1 selectivity)” value stood at 1.11.
On the same counts, the results for `O=C1Nc2ccccc2/C1=N/N=C1\C(=O)Nc2ccc(Cl)cc21` [Compound 6, (Z)-5-Chloro-3-((Z)-(2-oxoindolin-3-ylidene)hydrazono)indolin-2-one] are 9.67 ± 1.74 µM, 7.72 ± 0.5 µM and 1.25.
The matching figures for `O=C1Nc2ccccc2/C1=N/N=C1\C(=O)Nc2ccc(Br)cc21` [Compound 7, (Z)-5-Bromo-3-((Z)-(2-oxoindolin-3-ylidene)hydrazono)indolin-2-one]: 9.71 ± 0.31 µM, 7.58 ± 1.43 µM and 1.28.
Consider `Cc1ccc2c(c1)/C(=N/N=C1\C(=O)Nc3ccccc31)C(=O)N2` [Compound 8, (Z)-5-Methyl-3-((Z)-(2-oxoindolin-3-ylidene)hydrazono)indolin-2-one], for which the IC50 in assay [1] worked out at 12.1 ± 3.14 µM. Besides, in assay [2], the 50% inhibitory concentration (IC50) turned out to be 14.9 ± 1.26 µM and the “RR (MDR1 selectivity)” value stood at 0.81.
Take `O=C1Nc2ccccc2/C1=N/N=C1\C(=O)Nc2ccc([N+](=O)[O-])cc21` [Compound 9, (Z)-5-Nitro-3-((Z)-(2-oxoindolin-3-ylidene)hydrazono)indolin-2-one]: the 50% inhibitory concentration (IC50) in assay [1] turned out to be 29.2 ± 2.81 µM. In assay [2], the half-maximal inhibitory concentration (IC50) amounted to 30.4 ± 6.75 µM and the “RR (MDR1 selectivity)” value is 0.96.
On the same counts, the results for `O=C1Nc2ccccc2/C1=N/N=C1\C(=O)Nc2ccc(OC(F)(F)F)cc21` [Compound 10, (Z)-3-((Z)-(2-Oxoindolin-3-ylidene)hydrazono)-5-(trifluoromethoxy)indolin-2-one] are 9.75 ± 0.11 µM, 5.67 ± 1.18 µM and 1.72.
On the same counts, the results for `O=C1/C(=N\N=C2/C(=O)N(c3ccccc3)c3ccccc32)c2ccccc2N1c1ccccc1` [Compound 11, (3Z,3′Z)-3,3′-(Hydrazine-1,2-diylidene)bis(1-phenylindolin-2-one)] are 25.6 ± 2.39 µM, 22 ± 2.37 µM and 1.16.
On the same counts, the results for `O=C1Nc2ccc(F)cc2/C1=N/N=C1\C(=O)N(c2ccccc2)c2ccccc21` [Compound 12, (Z)-5-Fluoro-3-((Z)-(2-oxo-1-phenylindolin-3-ylidene)hydrazono)indolin-2-one] are 10.2 ± 1.52 µM, 11.2 ± 0.61 µM and 0.91.
`O=C1Nc2ccc(Cl)cc2/C1=N/N=C1\C(=O)N(c2ccccc2)c2ccccc21` [Compound 13, (Z)-5-Chloro-3-((Z)-(2-oxo-1-phenylindolin-3-ylidene)hydrazono)indolin-2-one]: the IC50 in assay [1] came out at 6.79 ± 0.63 µM. In addition, in assay [2], the IC50 came out at 6.07 ± 1.19 µM and the “RR (MDR1 selectivity)” value worked out at 1.12.
The matching figures for `O=C1Nc2ccc(Br)cc2/C1=N/N=C1\C(=O)N(c2ccccc2)c2ccccc21` [Compound 14, (Z)-5-Bromo-3-((Z)-(2-oxo-1-phenylindolin-3-ylidene)hydrazono)indolin-2-one]: 7.93 ± 2.11 µM, 8.71 ± 0.27 µM and 0.91.
On the same counts, the results for `Cc1ccc2c(c1)/C(=N/N=C1\C(=O)N(c3ccccc3)c3ccccc31)C(=O)N2` [Compound 15, (Z)-5-Methyl-3-((Z)-(2-oxo-1-phenylindolin-3-ylidene)hydrazono)indolin-2-one] are 8.37 ± 0.62 µM, 8.06 ± 1.68 µM and 1.04.
With `O=C1Nc2ccc([N+](=O)[O-])cc2/C1=N/N=C1\C(=O)N(c2ccccc2)c2ccccc21` [Compound 16, (Z)-5-Nitro-3-((Z)-(2-oxo-1-phenylindolin-3-ylidene)hydrazono)indolin-2-one], the IC50 in assay [1] is 37.1 ± 4.05 µM. Moreover, in assay [2], the IC50 turned out to be 48.6 ± 2.32 µM and the “RR (MDR1 selectivity)” value is given as 0.76.
As for `O=C1Nc2ccc(OC(F)(F)F)cc2/C1=N/N=C1\C(=O)N(c2ccccc2)c2ccccc21` [Compound 17, ((Z)-3-(Z)-(2-oxo-1-phenylindolin-3-ylidene)hydrazono)-5-(trifluoromethoxy)indolin-2-one], the IC50 was 7.67 ± 0.88 µM in assay [1] and 4.8 ± 0.12 µM in assay [2]. The “RR (MDR1 selectivity)” value in assay [2] was determined as 1.60.
Take `O=C1Nc2ccc(F)cc2/C1=N/N=C1\C(=O)Nc2ccc(F)cc21` [Compound 18, (3Z,3′Z)-3,3′-(Hydrazine-1,2-diylidene)bis(5-fluoroindolin-2-one)]: the results for the IC50 in assay [1] and in assay [2] were 20.4 ± 4.62 µM and 16.5 ± 6.28 µM, respectively. The “RR (MDR1 selectivity)” value in assay [2] amounted to 1.23.
`O=C1Nc2ccc(F)cc2/C1=N/N=C1\C(=O)Nc2ccc(Cl)cc21` [Compound 19, (Z)-5-Chloro-3-((Z)-(5-fluoro-2-oxoindolin-3-ylidene)hydrazono)indolin-2-one]: the IC50 in assay [1] is 17.4 ± 4.41 µM. In assay [2], the IC50 worked out at 11.3 ± 3.26 µM and the “RR (MDR1 selectivity)” value turned out to be 1.54.
The matching figures for `O=C1Nc2ccc(F)cc2/C1=N/N=C1\C(=O)Nc2ccc(Br)cc21` [Compound 20, (Z)-5-Bromo-3-((Z)-(5-fluoro-2-oxoindolin-3-ylidene)hydrazono)indolin-2-one]: 15.4 ± 3.97 µM, 18.6 ± 2.01 µM and 0.83.
On the same counts, the results for `Cc1ccc2c(c1)/C(=N/N=C1\C(=O)Nc3ccc(F)cc31)C(=O)N2` [Compound 21, (Z)-5-Fluoro-3-((Z)-(5-methyl-2-oxoindolin-3-ylidene)hydrazono)indolin-2-one] are 18.9 ± 0.46 µM, 17.9 ± 0.82 µM and 1.06.
Take `O=C1Nc2ccc(F)cc2/C1=N/N=C1\C(=O)Nc2ccc([N+](=O)[O-])cc21` [Compound 22, (Z)-5-Fluoro-3-((Z)-(5-nitro-2-oxoindolin-3-ylidene)hydrazono)indolin-2-one]: in assay [1], the IC50 came to 56 ± 1.5 µM. In assay [2], the concentration for half-maximal inhibition (IC50) came to 38.6 ± 13.5 µM and the “RR (MDR1 selectivity)” value is given as 1.45.
The matching figures for `O=C1Nc2ccc(F)cc2/C1=N/N=C1\C(=O)Nc2ccc(OC(F)(F)F)cc21` [Compound 23, (Z)-5-Fluoro-3-((Z)-(2-oxo-5-(trifluoromethoxy)indolin-3-ylidene)hydrazono)indolin-2-one]: 15.2 ± 1.34 µM, 11.6 ± 2.55 µM and 1.31.
